Our source for the Activity, viability and inhibition values is ChEMBL document CHEMBL6103575, “Design, synthesis and evaluation of (E)-1-(4-(2-(1H-pyrazol-5-yl)vinyl)phenyl) derivatives as next generation selective RET inhibitors overcoming RET solvent front mutations (G810C/R)” (Eur J Med Chem, 2025).

Experiment [1] is described as follows: Induction of apoptosis in mouse BaF3 cells harboring CCDC6-RET G810R mutant assessed as late apoptotic cells at 30 nM incubated for 48 hrs by Annexin V-PE staining based flow cytometry analysis (Rvb =3.21%). The experiment is classed as functional. A general note: A flow cytometer gives signals particle by particle.
The nature of experiment [2]: Induction of apoptosis in mouse BaF3 cells harboring CCDC6-RET G810R mutant assessed as viable cells at 300 nM incubated for 48 hrs by Annexin V-PE staining based flow cytometry analysis (Rvb =86.40%). The experiment is classed as functional. Conditions: read-out: Activity.
A short description of experiment [3]: Induction of apoptosis in mouse BaF3 cells harboring CCDC6-RET G810C mutant assessed as necrotic cells at 100 nM incubated for 48 hrs by Annexin V-PE staining based flow cytometry analysis (Rvb =0.48%). The experiment is classed as functional.
Experiment [4] is described as follows: Induction of cell cycle arrest in mouse BaF3 cells harboring CCDC6-RET G810R mutant assessed as accumulation of cells at G0/G1 phase at 100 nM incubated for 24 hrs by propidium iodide staining based analysis (reference value: 52.63%). The experiment is classed as functional.
In experiment [5] the target is Platelet-derived growth factor receptor alpha (Homo sapiens, UniProt P16234). In words: Inhibition of PDGFRalpha (unknown origin) at 1 uM relative to control.
Experiment [6] deals with Proto-oncogene tyrosine-protein kinase receptor Ret (Homo sapiens, UniProt P07949). In words: Inhibition of RET (unknown origin) at 1 uM relative to control.
A short description of experiment [7]: Induction of apoptosis in mouse BaF3 cells harboring CCDC6-RET G810C mutant assessed as necrotic cells at 30 nM incubated for 48 hrs by Annexin V-PE staining based flow cytometry analysis (Rvb =0.48%). The experiment is classed as functional.
The test system of another experiment is BaF3. In words: Inhibition of SHC phosphorylation in mouse BaF3 cells harboring CCDC6-RET G810R mutant incubated for 12 hrs by Western blotting analysis. The experiment is classed as cell-based. Conditions: dose <= 300.0 nM. In general terms: Immunoblotting shows a protein as a band on a membrane.

Sequence of Proto-oncogene tyrosine-protein kinase receptor Ret (P07949 whole entry): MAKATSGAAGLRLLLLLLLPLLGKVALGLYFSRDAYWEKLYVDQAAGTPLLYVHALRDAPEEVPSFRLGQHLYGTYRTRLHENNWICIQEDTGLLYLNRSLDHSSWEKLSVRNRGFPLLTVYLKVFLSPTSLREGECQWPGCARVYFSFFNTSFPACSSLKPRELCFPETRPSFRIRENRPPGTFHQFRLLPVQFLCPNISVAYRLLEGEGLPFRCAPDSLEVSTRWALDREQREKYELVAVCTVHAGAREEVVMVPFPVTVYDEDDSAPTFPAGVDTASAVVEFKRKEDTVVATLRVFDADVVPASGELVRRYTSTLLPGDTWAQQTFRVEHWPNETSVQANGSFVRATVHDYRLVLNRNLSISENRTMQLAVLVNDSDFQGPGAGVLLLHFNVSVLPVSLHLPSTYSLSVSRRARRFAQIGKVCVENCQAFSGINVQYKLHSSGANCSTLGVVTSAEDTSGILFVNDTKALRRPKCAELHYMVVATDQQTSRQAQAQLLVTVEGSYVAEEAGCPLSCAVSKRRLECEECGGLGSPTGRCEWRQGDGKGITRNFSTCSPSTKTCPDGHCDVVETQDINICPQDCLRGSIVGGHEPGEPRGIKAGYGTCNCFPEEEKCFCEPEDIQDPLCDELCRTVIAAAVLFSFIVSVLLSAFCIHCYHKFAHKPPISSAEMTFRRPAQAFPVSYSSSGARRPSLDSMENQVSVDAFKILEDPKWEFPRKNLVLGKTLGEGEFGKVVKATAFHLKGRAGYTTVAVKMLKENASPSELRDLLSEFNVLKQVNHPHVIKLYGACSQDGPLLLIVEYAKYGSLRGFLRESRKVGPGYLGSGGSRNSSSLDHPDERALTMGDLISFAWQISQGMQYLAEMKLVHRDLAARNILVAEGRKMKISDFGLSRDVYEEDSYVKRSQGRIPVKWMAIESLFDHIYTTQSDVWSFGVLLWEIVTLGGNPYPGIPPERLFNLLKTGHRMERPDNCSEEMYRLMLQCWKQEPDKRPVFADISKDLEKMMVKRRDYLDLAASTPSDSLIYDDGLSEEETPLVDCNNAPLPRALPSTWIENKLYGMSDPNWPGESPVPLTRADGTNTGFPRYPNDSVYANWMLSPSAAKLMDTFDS
Sequence of Platelet-derived growth factor receptor alpha (P16234 whole entry): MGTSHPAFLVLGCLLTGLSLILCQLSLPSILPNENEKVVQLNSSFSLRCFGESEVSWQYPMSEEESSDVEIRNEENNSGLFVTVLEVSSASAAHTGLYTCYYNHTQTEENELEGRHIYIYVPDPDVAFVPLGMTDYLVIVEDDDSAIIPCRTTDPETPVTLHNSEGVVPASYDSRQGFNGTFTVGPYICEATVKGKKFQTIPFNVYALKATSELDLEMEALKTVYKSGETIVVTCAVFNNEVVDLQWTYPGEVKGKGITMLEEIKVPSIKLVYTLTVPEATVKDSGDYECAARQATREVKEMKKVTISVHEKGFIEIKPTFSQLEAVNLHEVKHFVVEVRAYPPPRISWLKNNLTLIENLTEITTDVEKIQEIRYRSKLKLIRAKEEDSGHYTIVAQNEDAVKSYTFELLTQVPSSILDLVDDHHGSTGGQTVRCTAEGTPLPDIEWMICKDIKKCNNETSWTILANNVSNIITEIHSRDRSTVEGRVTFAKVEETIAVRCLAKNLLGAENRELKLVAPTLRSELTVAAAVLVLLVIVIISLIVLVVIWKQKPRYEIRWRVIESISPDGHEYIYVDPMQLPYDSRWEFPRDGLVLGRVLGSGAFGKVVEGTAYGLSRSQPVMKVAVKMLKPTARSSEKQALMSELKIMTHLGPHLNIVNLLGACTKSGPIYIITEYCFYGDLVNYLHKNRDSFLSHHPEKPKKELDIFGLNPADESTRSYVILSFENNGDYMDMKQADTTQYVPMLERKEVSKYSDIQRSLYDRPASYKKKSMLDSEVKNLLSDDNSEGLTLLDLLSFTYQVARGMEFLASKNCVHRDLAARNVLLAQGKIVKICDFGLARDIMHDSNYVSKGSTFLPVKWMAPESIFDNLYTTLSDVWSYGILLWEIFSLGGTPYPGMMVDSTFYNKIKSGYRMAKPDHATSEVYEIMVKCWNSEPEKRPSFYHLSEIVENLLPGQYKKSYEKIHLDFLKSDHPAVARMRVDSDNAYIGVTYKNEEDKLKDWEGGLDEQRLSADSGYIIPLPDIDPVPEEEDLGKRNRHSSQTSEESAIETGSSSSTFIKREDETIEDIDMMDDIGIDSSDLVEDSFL

On to `COc1cncc(-c2cn[nH]c2/C=C/c2ccc(NC(=O)Nc3cc(C(C)(C)C(F)(F)F)on3)c(Cl)c2)c1`, for which the Activity in experiment [1] came out at 2.48%; in experiment [3], 0.24%; in experiment [4], 57.96%; in experiment [7] it was 0.47%. Further, the viability at 0.3 µM in experiment [2] is 22.5%. The results for the inhibition (in experiment [5]; in experiment [6]; in the experiment on BaF3) were 101%, 98.3% and “Dose-dependent-effect”, respectively.
